# Measurements: US20050049299A1, “Selective inhibitors of stat-3 activation and uses thereof” (priority 2003, published 2005)
# Experiments:
# Assay type in all cases: cell-based, human
# [1] = system: STAT3 nuclear translocation; experiment: Immunocytochemistry for STAT3 localization in U266 cells; details: 50 μM, 60 minutes
# Procedure: U266 cells were incubated alone or with curcumin (50 μM) for 60 minutes and then analyzed for the distribution of STAT3 by immunocytochemistry (originial magnification, 200X).
# FIGS. 6A-C show& the effect of cell permeable STAT3 inhibitor peptide (STAT3iP) on STAT3 phosphorylation and cell viability in U266 cells. […] Results are shown as mean (±s.d. indicated by error bar) of absorbance (570 nm) of triplicate cultures compared to the untreated control.
# Curcumin-treated multiple myeloma cells were plated on a glass slide by centrifugation using a Cytospin 4 (Thermoshendon, Pittsburg, Pa.), air-dried for 1 h at room temperature, and fixed with cold acetone. After a brief washing in PBS, slides were blocked with 5% normal goat serum for 1 h and then incubated with rabbit polyclonal anti-human STAT3 antibody (dilution, 1:100). After overnight incubation, the slides were washed and then incubated with goat anti-rabbit IgG-Alexa 594 (1:100) for 1 h and counter-stained for nuclei with Hoechst (50 ng/ml) for 5 min. Stained slides were mounted with mounting medium (Sigma Co.) and analyzed under an epifluorescence microscope (Labophot-2, Nikon, Tokyo, Japan). Pictures were captured using Photometrics Coolsnap CF color camera (Nikon, Lewisville, Tex.) and MetaMorph version 4.6.5 software (Universal Imaging Corp., Downingtown, Pa.). […]
# [2] = system: U266 cells; experiment: IL-6-induced proliferation of U266 cells (thymidine incorporation, MTT); details: curcumin 10 μM, 48 h, serum-free; thymidine incorporation and MTT
# Procedure: FIGS. 7A-B show& that IL-6 induces proliferation of human multiple myeloma cells and curcumin inhibits it. […] Cell proliferation assays were performed as described below. Results are shown as mean (±s.d.) of percent [^3H] thymidine incorporation or percent proliferation by MTT of triplicate cultures compared to the untreated control.
# The antiproliferative effects of curcumin against different multiple myeloma cell lines were determined by the MTT dye uptake method as described earlier (28). Briefly, the cells (5000/well) were incubated in triplicate in a 96-well plate in the presence or absence of indicated test samples in a final volume of 0.1 ml for 24 h at 37° C. […] The OD at 570 nm was measured using a 96-well multiscanner autoreader (Dynatech MR 5000), with the extraction buffer serving as blank. Percent cell viability cell viability was calculated using the following formula: Percent cell viability=(OD of the experiment samples/OD of the control)×100.
# The antiproliferative effects of curcumin were also monitored by the thymidine incorporation method. […] Six hours before the completion of experiment, cells were pulse treated with 0.5 μCi [^3H]thymidine, and the uptake of [^3H]thymidine was monitored using a Matrix-9600 β-counter (Packard Instruments, Downers Grove, Ill.). […]
# Whether curcumin suppresses the proliferative effects of IL-6 was determined.
# [3] = system: multiple myeloma cells; experiment: Proliferation of multiple myeloma cells, curcumin vs AG490 (data not shown); details: 100 μM, 24 hours (data not shown)
smiles,measurement,setting,value
"COc1cc(/C=C/C(=O)CC(=O)/C=C/c2ccc(O)c(OC)c2)ccc1O [curcumin, diferuloylmethane]",translocation of STAT3 to the nucleus,[1],prevented the translocation of the STAT3 to the nucleus
same,IL-6-induced proliferation of U266 cells,[2],completely inhibited
same,proliferation of multiple myeloma cells,[3],completely suppressed
